The results in this text go back to ChEMBL document CHEMBL1201862, “PubChem BioAssay data set” (2004).

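In this assay, cells in 96-well plates receive the compound at five concentrations for 48 hours. Endpoints are linearly interpolated between the surrounding concentrations. GI50: concentration for 50% inhibition of growth.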 Active and inactive are the calls of the source. Rule as the data show it: active = GI50 up to about 1.1 µM and inactive = higher.

Test systems include KM12; LXFL 529; TK-10; OVCAR-4; NCI-H522; M19-MEL; Malme-3M; SW-620; SR; CCRF-CEM; HCT-15; OVCAR-5; DLD-1; HOP-18; ACHN.
Common to all, as to assay: NCI tumour cell line growth inhibition, 48 h

On to `Cc1cc(=O)cc2sc3c(C)cccc3nc1-2`, for which the GI50 in the assay on KM12 is 22.5 µM (inactive); in the assay on LXFL 529 it was 12.2 µM (inactive); with TK-10 it was 32.7 µM (inactive); with OVCAR-4 it was 15.8 µM (inactive); in the assay with NCI-H522, 25.1 µM (inactive); in the assay on M19-MEL, 19.5 µM (inactive). The GI50 in the assay on Malme-3M was 92.7 µM (inactive); with SW-620, 4.56 µM (inactive); in the assay with SR, 22.9 µM (inactive); with CCRF-CEM it was 15.4 µM (inactive); with HCT-15 it was 48.1 µM; in the assay on OVCAR-5, 49.9 µM (inactive). Besides, the GI50 with DLD-1 was 22.1 µM (inactive); in the assay on HOP-18 it was 41.9 µM (inactive); with ACHN it was 49.1 µM (inactive).
With `Cc1ccc(S(=O)(=O)N2CCN(C=S)CC2)cc1`, the GI50 in the assay on KM12, in the assay with LXFL 529, in the assay on TK-10, in the assay with NCI-H522, with M19-MEL and with Malme-3M was > 100 µM (inactive) throughout. Further, the GI50 with SW-620 is > 100 µM (inactive); with SR, > 100 µM (inactive); in the assay with CCRF-CEM, > 100 µM (inactive); in the assay on HCT-15, greater than 100 µM; in the assay on OVCAR-5, > 100 µM (inactive); with DLD-1, > 100 µM (inactive). The GI50 with HOP-18 and in the assay on ACHN was > 100 µM (inactive) throughout.
`S=C1SCC2CCCN12` (configuration not stated): the GI50 in the assay on KM12, in the assay on LXFL 529, in the assay with TK-10, with OVCAR-4, in the assay with NCI-H522 and in the assay on M19-MEL was > 100 µM (inactive) each time. The GI50 in the assay with Malme-3M is > 100 µM (inactive); in the assay on SW-620 it was > 100 µM (inactive); in the assay with SR it was > 100 µM (inactive); with CCRF-CEM it was > 100 µM (inactive); in the assay on HCT-15, greater than 100 µM; with OVCAR-5 it was > 100 µM (inactive). The GI50 in the assay on DLD-1, in the assay with HOP-18 and with ACHN was > 100 µM (inactive) in each case.
As to `Cn1c(=O)cc2[nH]c3ccccc3n2c1=O`, the GI50 with KM12 is > 100 µM (inactive); in the assay with LXFL 529, 42.8 µM (inactive); with TK-10 it was 81.7 µM (inactive); in the assay on OVCAR-4, 27 µM (inactive); in the assay with M19-MEL, 33.7 µM (inactive); with Malme-3M, > 100 µM (inactive). For the same molecule, the GI50 is 22.7 µM (inactive) with SW-620; > 100 µM (inactive) in the assay on SR; 41.5 µM (inactive) with CCRF-CEM; 33.7 µM in the assay on HCT-15; > 100 µM (inactive) in the assay on OVCAR-5; 40.2 µM (inactive) in the assay with DLD-1. Moreover, the GI50 with HOP-18 was 61.7 µM (inactive); in the assay with ACHN, 69.7 µM (inactive).
For `CC(C)(C)OC(=O)C#CC[C@H]1CCCC1/C=C/C(O)=C1/C(=O)NC(CCCNC(=O)OC(C)(C)C)C1=O` (some centres not stated), the GI50 in the assay on KM12 was 41.6 µM (inactive); with LXFL 529, 21.8 µM (inactive); with TK-10, 31.9 µM (inactive); in the assay with OVCAR-4, 33.5 µM (inactive); with NCI-H522 it was 16.5 µM (inactive); in the assay on M19-MEL, 25.9 µM (inactive). The GI50 is 21.3 µM (inactive) in the assay with Malme-3M; 38.5 µM (inactive) with SW-620; 26.2 µM (inactive) in the assay on SR; 27.2 µM (inactive) in the assay with CCRF-CEM; 88.5 µM (inactive) in the assay on OVCAR-5; 53 µM (inactive) with DLD-1. Besides, the GI50 was 25.7 µM (inactive) with HOP-18 and 40.7 µM (inactive) in the assay on ACHN.
